Measured values reported in patent publication US10168342B2, “Lipid probes and uses thereof” (THE SCRIPPS RESEARCH INSTITUTE, priority 2015, dated 2019).
Where two headings read alike, the source gives them in different places.

Columns and labels:
[1] = target: T1, AEA-DA lipid probe targets in Neuro2a cells (Mus musculus, UniProt Q91YQ5)
T1 sequence (Q91YQ5 26-608): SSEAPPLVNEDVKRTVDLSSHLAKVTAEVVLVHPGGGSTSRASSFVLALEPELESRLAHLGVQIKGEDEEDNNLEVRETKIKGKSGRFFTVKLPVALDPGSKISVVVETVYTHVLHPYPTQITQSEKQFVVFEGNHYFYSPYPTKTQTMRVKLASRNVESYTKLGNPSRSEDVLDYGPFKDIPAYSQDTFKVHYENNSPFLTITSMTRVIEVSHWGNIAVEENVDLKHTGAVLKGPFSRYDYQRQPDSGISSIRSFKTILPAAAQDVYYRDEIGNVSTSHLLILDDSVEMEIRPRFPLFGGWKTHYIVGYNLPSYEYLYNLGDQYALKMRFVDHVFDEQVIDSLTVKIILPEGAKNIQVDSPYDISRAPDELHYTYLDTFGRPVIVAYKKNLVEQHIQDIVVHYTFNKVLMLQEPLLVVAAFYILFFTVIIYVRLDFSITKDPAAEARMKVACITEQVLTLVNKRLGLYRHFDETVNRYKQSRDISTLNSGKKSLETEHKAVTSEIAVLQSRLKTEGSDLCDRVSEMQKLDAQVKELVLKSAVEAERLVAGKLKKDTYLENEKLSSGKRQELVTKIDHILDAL

[2] = target: T2, AEA-DA lipid probe targets in Neuro2a cells (Mus musculus, UniProt Q8K2C9)
T2 sequence (Q8K2C9 1-362): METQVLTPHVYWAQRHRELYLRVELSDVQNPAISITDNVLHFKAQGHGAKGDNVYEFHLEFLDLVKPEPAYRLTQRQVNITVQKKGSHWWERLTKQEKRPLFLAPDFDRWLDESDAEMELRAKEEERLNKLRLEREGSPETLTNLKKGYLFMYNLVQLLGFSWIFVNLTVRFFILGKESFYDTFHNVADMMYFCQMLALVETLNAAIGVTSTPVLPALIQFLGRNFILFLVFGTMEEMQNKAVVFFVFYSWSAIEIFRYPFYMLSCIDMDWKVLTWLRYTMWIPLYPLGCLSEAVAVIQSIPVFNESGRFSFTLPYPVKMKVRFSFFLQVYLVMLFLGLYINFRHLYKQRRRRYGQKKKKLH

[3] = target: AEA-DA lipid probe targets in Neuro2a cells (Mus musculus, UniProt P08113)
[4] = target: T3, AEA-DA lipid probe targets in Neuro2a cells (Mus musculus, UniProt P52875)
T3 sequence (P52875 34-323): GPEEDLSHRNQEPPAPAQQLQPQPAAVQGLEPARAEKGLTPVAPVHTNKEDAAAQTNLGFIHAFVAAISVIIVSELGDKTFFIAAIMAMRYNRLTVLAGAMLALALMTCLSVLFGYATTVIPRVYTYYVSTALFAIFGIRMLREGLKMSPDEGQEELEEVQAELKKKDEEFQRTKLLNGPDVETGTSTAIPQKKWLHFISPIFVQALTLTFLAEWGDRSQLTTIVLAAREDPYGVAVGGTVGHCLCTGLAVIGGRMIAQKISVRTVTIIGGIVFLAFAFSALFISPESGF

[5] = target: AEA-DA lipid probe targets in Neuro2a cells (Mus musculus, UniProt Q9Z2G6)
[6] = target: AEA-DA lipid probe targets in Neuro2a cells (Mus musculus, UniProt Q91WD5)
[7] = target: T4, AEA-DA lipid probe targets in Neuro2a cells (Mus musculus, UniProt Q8R0X7); conditions: for SILAC ratio, SGPL1 (O95470): Neuro2a cells, AEA-DA probe
T4 sequence (Q8R0X7 1-568): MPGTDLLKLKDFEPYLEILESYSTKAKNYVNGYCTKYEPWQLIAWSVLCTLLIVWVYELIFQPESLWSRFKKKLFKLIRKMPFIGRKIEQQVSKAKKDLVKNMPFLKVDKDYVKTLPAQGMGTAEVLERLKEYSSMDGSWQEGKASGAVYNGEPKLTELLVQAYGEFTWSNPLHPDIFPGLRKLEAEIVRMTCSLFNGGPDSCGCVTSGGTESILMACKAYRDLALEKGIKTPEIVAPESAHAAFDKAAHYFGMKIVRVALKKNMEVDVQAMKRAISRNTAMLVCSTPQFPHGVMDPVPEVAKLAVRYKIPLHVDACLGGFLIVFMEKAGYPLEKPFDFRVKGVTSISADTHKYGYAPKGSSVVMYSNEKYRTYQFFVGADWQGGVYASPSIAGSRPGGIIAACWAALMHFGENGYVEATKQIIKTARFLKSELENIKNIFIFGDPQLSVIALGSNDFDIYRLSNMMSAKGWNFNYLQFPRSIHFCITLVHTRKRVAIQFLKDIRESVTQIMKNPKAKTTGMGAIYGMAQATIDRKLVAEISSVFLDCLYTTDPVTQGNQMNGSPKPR

[8] = target: T5, AEA-DA lipid probe targets in Neuro2a cells (Mus musculus, UniProt Q9DBL9)
T5 sequence (Q9DBL9 1-351): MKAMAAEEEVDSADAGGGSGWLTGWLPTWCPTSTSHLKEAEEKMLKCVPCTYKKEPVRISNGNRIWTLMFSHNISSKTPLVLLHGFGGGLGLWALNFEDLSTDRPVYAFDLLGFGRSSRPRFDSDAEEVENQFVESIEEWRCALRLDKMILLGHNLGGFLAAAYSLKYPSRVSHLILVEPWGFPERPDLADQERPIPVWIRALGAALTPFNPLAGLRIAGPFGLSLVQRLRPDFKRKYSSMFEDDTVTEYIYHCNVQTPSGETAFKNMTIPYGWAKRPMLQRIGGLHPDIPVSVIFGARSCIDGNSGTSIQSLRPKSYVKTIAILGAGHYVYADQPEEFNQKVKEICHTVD

[9] = target: T6, AEA-DA lipid probe targets in Neuro2a cells (Mus musculus, UniProt Q8VDP6)
T6 sequence (Q8VDP6 1-213): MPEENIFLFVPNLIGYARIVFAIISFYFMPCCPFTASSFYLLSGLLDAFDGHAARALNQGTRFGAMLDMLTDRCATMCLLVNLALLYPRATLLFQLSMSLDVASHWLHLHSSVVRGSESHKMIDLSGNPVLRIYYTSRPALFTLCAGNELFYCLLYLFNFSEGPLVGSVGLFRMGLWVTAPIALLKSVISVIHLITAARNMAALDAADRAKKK

Sequence of AEA-DA lipid probe targets in Neuro2a cells (Mus musculus, UniProt Q91WD5) (Q91WD5 34-463): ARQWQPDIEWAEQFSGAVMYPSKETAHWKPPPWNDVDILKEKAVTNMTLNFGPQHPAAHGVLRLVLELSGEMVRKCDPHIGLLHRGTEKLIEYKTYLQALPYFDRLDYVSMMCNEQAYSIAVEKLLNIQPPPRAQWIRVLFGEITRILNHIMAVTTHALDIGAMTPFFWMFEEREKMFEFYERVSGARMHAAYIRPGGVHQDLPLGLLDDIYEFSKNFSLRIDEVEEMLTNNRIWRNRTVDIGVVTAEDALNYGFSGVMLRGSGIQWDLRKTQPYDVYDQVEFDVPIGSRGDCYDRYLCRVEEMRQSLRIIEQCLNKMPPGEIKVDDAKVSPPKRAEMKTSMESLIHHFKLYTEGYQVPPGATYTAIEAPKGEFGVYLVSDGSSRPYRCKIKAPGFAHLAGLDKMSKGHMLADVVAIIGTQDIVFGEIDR
Sequence of AEA-DA lipid probe targets in Neuro2a cells (Mus musculus, UniProt P08113) (P08113 22-802): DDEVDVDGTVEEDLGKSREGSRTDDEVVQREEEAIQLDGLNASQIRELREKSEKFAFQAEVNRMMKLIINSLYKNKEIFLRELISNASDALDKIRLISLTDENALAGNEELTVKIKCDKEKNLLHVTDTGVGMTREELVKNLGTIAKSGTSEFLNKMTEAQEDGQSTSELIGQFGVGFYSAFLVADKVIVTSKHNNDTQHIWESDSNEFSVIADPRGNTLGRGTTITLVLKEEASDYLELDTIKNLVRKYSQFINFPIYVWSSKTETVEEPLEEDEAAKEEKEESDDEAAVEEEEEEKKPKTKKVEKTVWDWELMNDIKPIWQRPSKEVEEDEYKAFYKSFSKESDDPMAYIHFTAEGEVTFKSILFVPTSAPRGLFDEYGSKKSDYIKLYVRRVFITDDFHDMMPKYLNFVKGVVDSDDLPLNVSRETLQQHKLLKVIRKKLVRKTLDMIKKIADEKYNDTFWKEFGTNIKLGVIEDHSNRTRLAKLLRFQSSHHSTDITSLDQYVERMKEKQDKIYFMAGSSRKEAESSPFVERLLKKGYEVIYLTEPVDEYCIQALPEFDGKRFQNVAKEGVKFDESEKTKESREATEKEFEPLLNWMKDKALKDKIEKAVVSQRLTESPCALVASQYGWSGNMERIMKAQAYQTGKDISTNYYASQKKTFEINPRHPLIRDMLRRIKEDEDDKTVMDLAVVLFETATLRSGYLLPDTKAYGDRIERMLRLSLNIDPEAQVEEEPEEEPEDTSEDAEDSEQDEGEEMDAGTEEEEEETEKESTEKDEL
Sequence of AEA-DA lipid probe targets in Neuro2a cells (Mus musculus, UniProt Q9Z2G6) (Q9Z2G6 22-790): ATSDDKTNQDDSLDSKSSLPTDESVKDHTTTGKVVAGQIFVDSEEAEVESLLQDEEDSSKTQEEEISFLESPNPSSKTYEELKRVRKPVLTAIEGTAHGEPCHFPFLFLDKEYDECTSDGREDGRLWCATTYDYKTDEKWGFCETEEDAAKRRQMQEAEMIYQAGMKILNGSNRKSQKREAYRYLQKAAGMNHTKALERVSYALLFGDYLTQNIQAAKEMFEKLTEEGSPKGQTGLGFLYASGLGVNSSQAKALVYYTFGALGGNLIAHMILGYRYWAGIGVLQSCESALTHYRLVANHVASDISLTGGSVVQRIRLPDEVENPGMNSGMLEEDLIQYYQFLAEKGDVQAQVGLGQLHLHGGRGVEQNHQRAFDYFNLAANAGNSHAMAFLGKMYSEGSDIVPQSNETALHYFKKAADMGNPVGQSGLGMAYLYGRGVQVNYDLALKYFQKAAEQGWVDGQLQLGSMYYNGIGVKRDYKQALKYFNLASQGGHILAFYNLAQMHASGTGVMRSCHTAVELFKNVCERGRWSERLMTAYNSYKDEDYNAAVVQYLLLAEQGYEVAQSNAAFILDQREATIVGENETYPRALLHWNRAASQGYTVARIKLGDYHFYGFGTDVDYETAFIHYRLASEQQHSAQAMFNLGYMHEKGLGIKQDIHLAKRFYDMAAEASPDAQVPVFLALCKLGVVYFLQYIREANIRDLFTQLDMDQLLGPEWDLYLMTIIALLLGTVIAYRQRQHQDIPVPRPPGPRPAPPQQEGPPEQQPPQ

O=C(/C=C/c1cccnc1)NCCCCC1CCN(C(=O)c2ccccc2)CC1 [FK-866, reference compound]
SILAC ratio Rpn1 ([1]; competitor 25 μM): 1.2
SILAC ratio ptplad1 ([2]; competitor 25 μM): 1.2
SILAC ratio Hsp90b1 ([3]; competitor 25 μM): 1.2
SILAC ratio, Tmem165 ([4]; competitor 25 μM): 1.1
SILAC ratio, Sel1l ([5]; competitor 25 μM): 1.4
SILAC ratio Ndufs2 ([6]; competitor 25 μM): 1.7
SILAC ratio, SGPL1 (O95470) ([7]; competitor 25 μM): 1.7
SILAC ratio, Sgpl1 ([7]; competitor 25 μM): 1.7
SILAC ratio, Abhd5 ([8]; competitor 25 μM): 1.0
SILAC ratio, Cdipt ([9]; competitor 25 μM): 1.1

CCCCC/C=C\C/C=C\C/C=C\C/C=C\CCCC(=O)NCCO [AEA, anandamide, reference compound]
SILAC ratio Rpn1 ([1]; competitor 200 μM): 1.6
SILAC ratio ptplad1 ([2]; competitor 200 μM): 1.8
SILAC ratio Hsp90b1 ([3]; competitor 200 μM): 1.1
SILAC ratio, Tmem165 ([4]; competitor 200 μM): 1.5
SILAC ratio, Sel1l ([5]; competitor 200 μM): 1.6
SILAC ratio Ndufs2 ([6]; competitor 200 μM): 1.3
SILAC ratio, SGPL1 (O95470) ([7]; competitor 200 μM): 2.7
SILAC ratio, Sgpl1 ([7]; competitor 200 μM): 2.7
SILAC ratio, Abhd5 ([8]; competitor 200 μM): 1.3
SILAC ratio, Cdipt ([9]; competitor 200 μM): 1.8

CN1CCN(C(=O)c2c(-c3ccccc3)c3cc([N+](=O)[O-])ccc3n2C)CC1 [KML110, (1-Methyl-5-nitro-3-phenyl-1H-indol-2-yl)(4-methylpiperazin-1-yl)methanone]
SILAC ratio Rpn1 ([1]; competitor 25 μM): 1.2
SILAC ratio ptplad1 ([2]; competitor 25 μM): 1.7
SILAC ratio Hsp90b1 ([3]; competitor 25 μM): 1.4
SILAC ratio, Tmem165 ([4]; competitor 25 μM): 1.5
SILAC ratio, Sel1l ([5]; competitor 25 μM): 1.5
SILAC ratio Ndufs2 ([6]; competitor 25 μM): 1.3
SILAC ratio, Sgpl1 ([7]; competitor 25 μM): 1.4
SILAC ratio, Abhd5 ([8]; competitor 25 μM): 2.0
SILAC ratio, Cdipt ([9]; competitor 25 μM): 0.9

C=CCN(C)CCCCCCOc1ccc(C(=O)c2ccc(Br)cc2)c(F)c1 [Ro 48-8071, reference compound]
SILAC ratio Rpn1 ([1]; competitor 25 μM): 0.9
SILAC ratio ptplad1 ([2]; competitor 25 μM): 1.4
SILAC ratio Hsp90b1 ([3]; competitor 25 μM): 0.9
SILAC ratio, Tmem165 ([4]; competitor 25 μM): 1.1
SILAC ratio, Sel1l ([5]; competitor 25 μM): 1.2
SILAC ratio Ndufs2 ([6]; competitor 25 μM): 1.2
SILAC ratio, SGPL1 (O95470) ([7]; competitor 25 μM): 1.2
SILAC ratio, Sgpl1 ([7]; competitor 25 μM): 1.2
SILAC ratio, Abhd5 ([8]; competitor 25 μM): 1.4
SILAC ratio, Cdipt ([9]; competitor 25 μM): 0.7

CN1CCN(C(=O)c2[nH]c3ccc([N+](=O)[O-])cc3c2-c2ccccc2)CC1 [MJN228, (4-Methylpiperazin-1-yl)(5-nitro-3-phenyl-1H-indol-2-yl)methanone]
SILAC ratio Rpn1 ([1]; competitor 10 μM): 1.3
SILAC ratio Rpn1 ([1]; competitor 25 μM): 1.4
SILAC ratio Rpn1 ([1]; competitor 50 μM): 1.2
SILAC ratio Rpn1 ([1]; competitor 100 μM): 1.6
SILAC ratio ptplad1 ([2]; competitor 10 μM): 1.3
SILAC ratio ptplad1 ([2]; competitor 25 μM): 1.7
SILAC ratio ptplad1 ([2]; competitor 50 μM): 1.9
SILAC ratio ptplad1 ([2]; competitor 100 μM): 2.3
SILAC ratio Hsp90b1 ([3]; competitor 10 μM): 1.3
SILAC ratio Hsp90b1 ([3]; competitor 25 μM): 1.3
SILAC ratio Hsp90b1 ([3]; competitor 50 μM): 1.5
SILAC ratio Hsp90b1 ([3]; competitor 100 μM): 1.4
SILAC ratio, Tmem165 ([4]; competitor 10 μM): 1.0
SILAC ratio, Tmem165 ([4]; competitor 25 μM): 1.2
SILAC ratio, Tmem165 ([4]; competitor 100 μM): 1.5
SILAC ratio, Sel1l ([5]; competitor 10 μM): 1.2
SILAC ratio, Sel1l ([5]; competitor 25 μM): 1.5
SILAC ratio, Sel1l ([5]; competitor 50 μM): 1.5
SILAC ratio, Sel1l ([5]; competitor 100 μM): 1.9
SILAC ratio Ndufs2 ([6]; competitor 10 μM): 1.3
SILAC ratio Ndufs2 ([6]; competitor 25 μM): 1.3
SILAC ratio Ndufs2 ([6]; competitor 100 μM): 1.1
SILAC ratio, SGPL1 (O95470) ([7]; competitor 25 μM): 1.5
SILAC ratio, Sgpl1 ([7]; competitor 10 μM): 1.3
SILAC ratio, Sgpl1 ([7]; competitor 25 μM): 1.5
SILAC ratio, Sgpl1 ([7]; competitor 50 μM): 1.8
SILAC ratio, Sgpl1 ([7]; competitor 100 μM): 2.7
SILAC ratio, Abhd5 ([8]; competitor 10 μM): 1.6
SILAC ratio, Abhd5 ([8]; competitor 25 μM): 2.2
SILAC ratio, Abhd5 ([8]; competitor 50 μM): 4.0
SILAC ratio, Abhd5 ([8]; competitor 100 μM): 14.3
SILAC ratio, Cdipt ([9]; competitor 10 μM): 1.0
SILAC ratio, Cdipt ([9]; competitor 25 μM): 1.0
SILAC ratio, Cdipt ([9]; competitor 50 μM): 0.7
SILAC ratio, Cdipt ([9]; competitor 100 μM): 0.8
